Earlier results, collected in patent US6838238B1, “Morphatides: novel shape and structure libraries” (Invitrogen Corporation, priority 1996, dated 2005).

Conditions: ionizes by hydration to yield the tetrahedral phenylboronate anion

pKa: 8.86
SMILES: OB(O)c1ccccc1 [Phenylboronic acid]
